Data reported in publication PMC9090415, “Discovery of small molecule inhibitors of Plasmodium falciparum apicoplast DNA polymerase” (Journal of Enzyme Inhibition and Medicinal Chemistry, 2022).
pIC50: −log10 of the molar value.

Target: P. falciparum apicoplast DNA polymerase (Pf-apPOL) (Plasmodium falciparum, UniProt Q8ILY1)
Assay: Fluorescence-based high-throughput DNA polymerase assay (molecular beacon), primary screen and dose-response;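 as to % inhibition ApPOL 90': test concentration in µM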;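 as to % inhibition apPOL 180': test concentration in µM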
Assay type: biochemical
Procedure, shortened: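 Single-point screening used 10 µM compound with 20 nM polymerase, 20 nM hairpin substrate and 6 µM dNTPs for 90 min at 25 °C. Confirmatory titrations (2.5–80 µM) followed fluorescence at three times, and IC50 was derived from a fit including a cooperativity term n.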

Chain of P. falciparum apicoplast DNA polymerase (Pf-apPOL) (Q8ILY1 entry or part of it): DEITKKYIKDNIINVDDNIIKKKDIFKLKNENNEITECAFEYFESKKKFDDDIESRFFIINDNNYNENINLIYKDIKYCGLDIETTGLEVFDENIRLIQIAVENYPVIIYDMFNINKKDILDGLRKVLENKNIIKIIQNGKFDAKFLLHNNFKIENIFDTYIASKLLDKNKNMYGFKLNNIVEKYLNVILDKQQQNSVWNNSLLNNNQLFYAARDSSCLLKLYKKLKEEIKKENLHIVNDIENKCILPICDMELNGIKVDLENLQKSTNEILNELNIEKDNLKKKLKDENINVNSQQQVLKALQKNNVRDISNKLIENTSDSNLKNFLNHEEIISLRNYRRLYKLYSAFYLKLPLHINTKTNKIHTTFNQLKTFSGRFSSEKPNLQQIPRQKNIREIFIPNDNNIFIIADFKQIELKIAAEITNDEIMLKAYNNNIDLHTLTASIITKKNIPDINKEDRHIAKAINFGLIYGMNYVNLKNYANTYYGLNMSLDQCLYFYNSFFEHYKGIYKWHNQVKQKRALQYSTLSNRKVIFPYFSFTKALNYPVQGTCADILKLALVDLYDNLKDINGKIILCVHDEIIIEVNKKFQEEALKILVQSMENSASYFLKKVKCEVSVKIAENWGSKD

CSCCC(C)(O)CNC(=O)C1CC1 (centres unmarked) [KU0200150]
DNA Pol ('DNA Pol'; screening value, unit not given; 90 min, 10 µM): 33 | % inhibition Apo pol 10' (DRC-1; 10'; concentration 2.5): 4.373% | % inhibition Apo pol 10' (DRC-1; 10'; concentration 5): 5.1384% | % inhibition Apo pol 10' (DRC-1; 10'; concentration 10): 19.1529% | % inhibition Apo pol 10' (DRC-1; 10'; concentration 20): 27.3456% | % inhibition Apo pol 10' (DRC-1; 10'; concentration 40): 40.4484% | % inhibition Apo pol 10' (DRC-1; 10'; concentration 80): 39.3482% | % inhibition Apol 90' (DRC-1; 90'; concentration 2.5): 7.582% | % inhibition Apol 90' (DRC-1; 90'; concentration 5): 12.5551% | % inhibition Apol 90' (DRC-1; 90'; concentration 10): 30.4266% | % inhibition Apol 90' (DRC-1; 90'; concentration 20): 38.5831% | % inhibition Apol 90' (DRC-1; 90'; concentration 40): 51.9729% | % inhibition Apol 90' (DRC-1; 90'; concentration 80): 47.9472% | % inhibition apPOL 180' (DRC-1; 180'; concentration 2.5): 8.962% | % inhibition apPOL 180' (DRC-1; 180'; concentration 5): 14.7367% | % inhibition apPOL 180' (DRC-1; 180'; concentration 10): 36.1682% | % inhibition apPOL 180' (DRC-1; 180'; concentration 20): 43.4388% | % inhibition apPOL 180' (DRC-1; 180'; concentration 40): 54.9454% | % inhibition apPOL 180' (DRC-1; 180'; concentration 80): 46.3242% | % inhibition Apo pol 5' (DRC-2, 5', concentration 2.5): 0.182% | % inhibition Apo pol 5' (DRC-2, 5', concentration 5): 4.75% | % inhibition Apo pol 5' (DRC-2, 5', concentration 10): 22% | % inhibition Apo pol 5' (DRC-2, 5', concentration 20): 24% | % inhibition Apo pol 5' (DRC-2, 5', concentration 40): 29% | % inhibition Apo pol 5' (DRC-2, 5', concentration 80): 27% | % inhibition Apol 40' (DRC-2, 40', concentration 2.5): 3.34% | % inhibition Apol 40' (DRC-2, 40', concentration 5): 11% | % inhibition Apol 40' (DRC-2, 40', concentration 10): 28% | % inhibition Apol 40' (DRC-2, 40', concentration 20): 33% | % inhibition Apol 40' (DRC-2, 40', concentration 40): 41% | % inhibition Apol 40' (DRC-2, 40', concentration 80): 41% | % inhibition ApPOL 90' (DRC-2, 90', concentration 2.5): 3.4% | % inhibition ApPOL 90' (DRC-2, 90', concentration 5): 11% | % inhibition ApPOL 90' (DRC-2, 90', concentration 10): 27% | % inhibition ApPOL 90' (DRC-2, 90', concentration 20): 30% | % inhibition ApPOL 90' (DRC-2, 90', concentration 40): 42% | % inhibition ApPOL 90' (DRC-2, 90', concentration 80): 41% | % inhibition apPOL 180' (DRC-2, 180', concentration 2.5): 0.149% | % inhibition apPOL 180' (DRC-2, 180', concentration 5): 5% | % inhibition apPOL 180' (DRC-2, 180', concentration 10): 17% | % inhibition apPOL 180' (DRC-2, 180', concentration 20): 18% | % inhibition apPOL 180' (DRC-2, 180', concentration 40): 32% | % inhibition apPOL 180' (DRC-2, 180', concentration 80): 32% | % inhibition Apol 40' (conc 5 (unit not given); 40'; DRC-2): 11% | % inhibition ApPOL 90' (conc 5 (unit not given); 90'; DRC-2): 11% | % inhibition ApPOL 90' (conc 10 (unit not given); 90'; DRC-2): 27% | % inhibition Apol 40' (conc 40 (unit not given); 40'; DRC-2): 41% | % inhibition apPOL 180' (conc 40 (unit not given); 180'; DRC-2): 32% | % inhibition Apo pol 5' (conc 80 (unit not given); 5'; DRC-2): 27% | % inhibition Apol 40' (conc 80 (unit not given); 40'; DRC-2): 41% | % inhibition ApPOL 90' (conc 80 (unit not given); 90'; DRC-2): 41% | % inhibition apPOL 180' (conc 80 (unit not given); 180'; DRC-2): 32% | DNA Pol (primary screen hit value, DNA Pol (186 hits); 90 min, 10 µM): 33

CC(=O)OCC1=C(C(=O)O)N2C(=O)[C@@H](NC(=O)Cc3cccs3)[C@H]2SC1 [Molecule 73]
pIC50 (supplemental file 2, sheet IC50 nontoxic compounds; Pf-apPOL): 4.78

COc1ccc(C(=O)Nc2cccc(-c3nc4ncccc4o3)c2)cc1[N+](=O)[O-] [KU0063313]
DNA Pol (186 hits, value of the hit list (primary screen); unit not given; 90 min, 10 µM): 31 | % inhibition Apo pol 10' (DRC-1; 10'; concentration 2.5): 4.335% | % inhibition Apo pol 10' (DRC-1; 10'; concentration 5): 2.852% | % inhibition Apo pol 10' (DRC-1; 10'; concentration 10): 35.1619% | % inhibition Apo pol 10' (DRC-1; 10'; concentration 20): 59.4699% | % inhibition Apo pol 10' (DRC-1; 10'; concentration 40): 4.461% | % inhibition Apo pol 10' (DRC-1; 10'; concentration 80): 70.0671% | % inhibition Apol 90' (DRC-1; 90'; concentration 2.5): 2.478% | % inhibition Apol 90' (DRC-1; 90'; concentration 5): 4.0361% | % inhibition Apol 90' (DRC-1; 90'; concentration 10): 26.4412% | % inhibition Apol 90' (DRC-1; 90'; concentration 20): 41.4228% | % inhibition Apol 90' (DRC-1; 90'; concentration 40): 2.829% | % inhibition Apol 90' (DRC-1; 90'; concentration 80): 43.7849% | % inhibition apPOL 180' (DRC-1; 180'; concentration 2.5): -1.663% | % inhibition apPOL 180' (DRC-1; 180'; concentration 5): 2.317% | % inhibition apPOL 180' (DRC-1; 180'; concentration 10): 20.5277% | % inhibition apPOL 180' (DRC-1; 180'; concentration 20): 37.6573% | % inhibition apPOL 180' (DRC-1; 180'; concentration 40): 6.705% | % inhibition apPOL 180' (DRC-1; 180'; concentration 80): 38.9716% | % inhibition Apo pol 5' (DRC-2, 5', concentration 2.5): 0.145% | % inhibition Apo pol 5' (DRC-2, 5', concentration 5): 8% | % inhibition Apo pol 5' (DRC-2, 5', concentration 10): 16% | % inhibition Apo pol 5' (DRC-2, 5', concentration 20): 4% | % inhibition Apo pol 5' (DRC-2, 5', concentration 40): 29% | % inhibition Apo pol 5' (DRC-2, 5', concentration 80): 15% | % inhibition Apol 40' (DRC-2, 40', concentration 2.5): 0.929% | % inhibition Apol 40' (DRC-2, 40', concentration 5): 10% | % inhibition Apol 40' (DRC-2, 40', concentration 10): 18% | % inhibition Apol 40' (DRC-2, 40', concentration 20): 1.88% | % inhibition Apol 40' (DRC-2, 40', concentration 40): 61% | % inhibition Apol 40' (DRC-2, 40', concentration 80): 45% | % inhibition ApPOL 90' (DRC-2, 90', concentration 2.5): 0.838% | % inhibition ApPOL 90' (DRC-2, 90', concentration 5): 10% | % inhibition ApPOL 90' (DRC-2, 90', concentration 10): 15% | % inhibition ApPOL 90' (DRC-2, 90', concentration 20): -0.691% | % inhibition ApPOL 90' (DRC-2, 90', concentration 40): 68% | % inhibition ApPOL 90' (DRC-2, 90', concentration 80): 58% | % inhibition apPOL 180' (DRC-2, 180', concentration 2.5): -5% | % inhibition apPOL 180' (DRC-2, 180', concentration 5): 2.55% | % inhibition apPOL 180' (DRC-2, 180', concentration 10): 8% | % inhibition apPOL 180' (DRC-2, 180', concentration 20): -8% | % inhibition apPOL 180' (DRC-2, 180', concentration 40): 73% | % inhibition apPOL 180' (DRC-2, 180', concentration 80): 62% | % inhibition Apo pol 5' (DRC-2; 5'; concentration 5): 8% | % inhibition Apo pol 5' (DRC-2; 5'; concentration 80): 15% | % inhibition Apol 40' (DRC-2; 40'; concentration 5): 10% | % inhibition ApPOL 90' (DRC-2; 90'; concentration 5): 10% | % inhibition ApPOL 90' (DRC-2; 90'; concentration 10): 15% | % inhibition apPOL 180' (DRC-2; 180'; concentration 10): 8% | DNA Pol (primary screen value, 'DNA Pol' only; 90 min, 10 µM): 31
